Data: patent US12037333B2, “Pyridopyrazine and pyridotriazine inhibitors of influenza virus replication” (priority 2018, dated 2024)

These compounds were tested on Influenza type B (cell culture adapted strain B/Lee/40, ATCC VR-1535) (assay: Influenza antiviral assay: inhibition of virus-induced cytopathic effects (CPE) in MDCK cells, XTT dye reduction). Settings: Influenza B virus, MDCK, 96 h, strain B/Lee/40, MDCK cells, CPE inhibition at 4 days.
Type: cell-based
Compound O=C1c2c(O)c(=O)ccn2N(C23c4ccccc4CC2Cc2c3ccc(F)c2F)CN1Cc1cccc(F)c1 (stereo not shown) [Compound A26, 1-(1,2-difluoro-9a,10-dihydroindeno[1,2-a]inden-4b(9H)-yl)-3-(3-fluorobenzyl)-5-hydroxy-2,3-dihydro-1H-pyrido[2,1-f][1,2,4]triazine-4,6-dione] has an EC50 of 250 to 375 nM. In the case of CCC12Cc3ccccc3C1(N1CN(C)C(=O)c3c(O)c(=O)ccn31)c1ccccc1C2 (stereo not shown) [Compound A162], the EC50 is reported as less than 125 nM. O=C1c2c(O)c(=O)ccn2N(C23c4ccccc4CC2Cc2c(Cl)cccc23)CN1CC1CCC1 (stereo not shown) [Compound A112] was tested, and the EC50 was 250 to 375 nM. In the case of Cc1cc(CN2CN(C34c5ccccc5CC3Cc3ccccc34)n3ccc(=O)c(O)c3C2=O)no1 (stereo not shown) [Compound A144], the EC50 is reported as less than 125 nM. CC1N(C2CCC2)C(=O)c2c(O)c(=O)ccn2N1C12c3ccccc3CC1Cc1c(F)cccc12 (stereo not shown) [Compound A141] showed an EC50 of 250 to 375 nM. Compound Cc1ccc2c(c1F)CC1Cc3ccccc3C21N1CN(C)C(=O)c2c(O)c(=O)ccn21 (stereo not shown) [Compound A85] has an EC50 of 250 to 375 nM. O=C1c2c(O)c(=O)ccn2N(C23c4ccccc4CC2Cc2c3ccc(F)c2F)CN1CC1CCCCO1 (stereo not shown) [Compound A131] showed an EC50 of 125 to 250 nM. CN1CN(C23c4ccccc4CC2(C(F)F)Cc2ccccc23)n2ccc(=O)c(O)c2C1=O (stereo not shown) [Compound A63] was tested, and the EC50 was less than 125 nM. Work on CCN1CN(C23c4ccccc4CC2Cc2c3ccc(F)c2Cl)n2ccc(=O)c(O)c2C1=O (stereo not shown) [Compound A47] yielded an EC50 of 125 to 250 nM. Work on CCN1CN(C23c4cccc(C)c4CC2Cc2c(F)cccc23)n2ccc(=O)c(O)c2C1=O (stereo not shown) [Compound A66] yielded an EC50 of less than 125 nM. CCN1CN(C23c4cccc(F)c4CC2(C)Cc2c(F)cccc23)n2ccc(=O)c(O)c2C1=O (stereo not shown) [Compound A51] gave an EC50 of less than 125 nM. O=C1c2c(O)c(=O)ccn2N(C23c4ccccc4CC2Cc2c3ccc(F)c2F)CN1CCc1cccc(F)c1 (stereo not shown) [Compound A27, 1-(1,2-difluoro-9a,10-dihydroindeno[1,2-a]inden-4b(9H)-yl)-3-(3-fluorophenethyl)-5-hydroxy-2,3-dihydro-1H-pyrido[2,1-f][1,2,4]triazine-4,6-dione] was tested, and the EC50 was 250 to 375 nM. Compound O=C1c2c(O)c(=O)ccn2N(C23c4cccc(F)c4CC2Cc2c(F)cccc23)CN1CC1CCOCC1 (stereo not shown) [Compound A81] has an EC50 of 125 to 250 nM. Work on CN1C(=O)c2c(O)c(=O)ccn2N(C23c4cccc(F)c4CC2Cc2c(F)cccc23)C1CN (stereo not shown) [Compound A107, 2-(aminomethyl)-1-(1,8-difluoro-9a,10-dihydroindeno[1,2-a]inden-4b(9H)-yl)-5-hydroxy-3-methyl-2,3-dihydro-1H-pyrido[2,1-f][1,2,4]triazine-4,6-dione] yielded an EC50 of 125 to 250 nM. CC1N(C)C(=O)c2c(O)c(=O)ccn2N1C12c3ccccc3CC1Cc1ccccc12 (stereo not shown) [Compound A158] gave an EC50 of 125 to 250 nM. O=C1c2c(O)c(=O)ccn2N(C23c4ccccc4CC2Cc2c3ccc(F)c2F)CN1Cc1ccccc1 (stereo not shown) [Compound A11, 3-Benzyl-1-(1,2-difluoro-9a,10-dihydro-9H-indeno[1,2-a]inden-4b-yl)-5-hydroxy-2,3-dihydro-1H-pyrido[2,1-t][1,2,4]triazine-4,6-dione] showed an EC50 of 375 to 500 nM. With CN1CN(C23c4ccccc4CC2Cc2c3ccc(F)c2Cl)n2ccc(=O)c(O)c2C1=O (stereo not shown) [Compound A46, 1-(1-Chloro-2-fluoro-9a,10-dihydroindeno[1,2-a]inden-4b(9H)-yl)-5-hydroxy-3-methyl-2,3-dihydro-1H-pyrido[2,1-f][1,2,4]triazine-4,6-dione] the EC50 was less than 125 nM. Work on CN1CN(C23c4ccccc4CC2Cc2ccc(F)cc23)n2ccc(=O)c(O)c2C1=O (stereo not shown) [Compound A53] yielded an EC50 of less than 125 nM. O=C1c2c(O)c(=O)ccn2N(C23c4ccccc4CC2Cc2c(Cl)cccc23)CN1CCCF (stereo not shown) [Compound A102] showed an EC50 of less than 125 nM. CN1CN(C23c4cc(F)c(F)cc4CC2Cc2cc(F)c(F)cc23)n2ccc(=O)c(O)c2C1=O (stereo not shown) [Compound A8, 5-Hydroxy-3-methyl-1-(2,3,6,7-tetrafluoro-9a,10-dihydro-9H-indeno[1,2-a]inden-4b-yl)-2,3-dihydro-1H-pyrido[2,1-f][1,2,4]triazine-4,6-dione] gave an EC50 greater than 500 nM. With O=C1c2c(O)c(=O)ccn2N(C23c4ccccc4CC2Cc2cc(F)c(F)cc23)CN1Cc1cccc(F)c1 (stereo not shown) [Compound A24, 1-(2,3-difluoro-9a,10-dihydroindeno[1,2-a]inden-4b(9H)-yl)-3-(3-fluorobenzyl)-5-hydroxy-2,3-dihydro-1H-pyrido[2,1-f][1,2,4]triazine-4,6-dione] the EC50 was 375 to 500 nM. With O=C1c2c(O)c(=O)ccn2N(C23c4ccccc4CC2Cc2c3ccc(F)c2F)CN1CCF (stereo not shown) [Compound A74] the EC50 was less than 125 nM. With Cc1cccc2c1CC1Cc3c(F)cccc3C21N1CN(C)C(=O)c2c(O)c(=O)ccn21 (stereo not shown) [Compound A67] the EC50 was less than 125 nM. Compound O=C1c2c(O)c(=O)ccn2N(C23c4cccc(F)c4CC2Cc2c(F)cccc23)CN1CCF (stereo not shown) [Compound A58] has an EC50 of less than 125 nM. COC12Cc3ccccc3C1(N1CN(C)C(=O)c3c(O)c(=O)ccn31)c1ccccc1C2 (stereo not shown) [Compound A62] was tested, and the EC50 was less than 125 nM. For CC1N(CC2CC2)C(=O)c2c(O)c(=O)ccn2N1C12c3ccccc3CC1Cc1c(Cl)cccc12 (stereo not shown) [Compound A140], the EC50 was 250 to 375 nM. For COCCN1C(=O)c2c(O)c(=O)ccn2N(C23c4ccccc4CC2Cc2c(Cl)cccc23)C1C (stereo not shown) [Compound A125], the EC50 was 125 to 250 nM. Compound COCCN1CN(C23c4ccccc4CC2Cc2c(Cl)cccc23)n2ccc(=O)c(O)c2C1=O (stereo not shown) [Compound A101] has an EC50 of less than 125 nM. Compound CC(CCN1CN(C23c4ccccc4CC2Cc2c3ccc(F)c2F)n2ccc(=O)c(O)c2C1=O)c1ccccc1 (stereo not shown) [Compound A91] has an EC50 of 125 to 250 nM. CC(C)CN1CN(C23c4ccccc4CC2Cc2c3ccc(F)c2F)n2ccc(=O)c(O)c2C1=O (stereo not shown) [Compound A149] gave an EC50 of less than 125 nM. O=C1c2c(O)c(=O)ccn2N(C23c4ccccc4CC2Cc2cc(F)c(F)cc23)CN1Cc1ccccc1 (stereo not shown) [Compound A21, 3-benzyl-1-(2,3-difluoro-9a,10-dihydroindeno[1,2-a]inden-4b(9H)-yl)-5-hydroxy-2,3-dihydro-1H-pyrido[2,1-f][1,2,4]triazine-4,6-dione] was tested, and the EC50 was less than 125 nM. Work on CC1N(CC(F)F)C(=O)c2c(O)c(=O)ccn2N1C12c3ccccc3CC1Cc1c2ccc(F)c1F (stereo not shown) [Compound A136] yielded an EC50 of 250 to 375 nM. With CCN1CN(C23c4ccccc4CC2Cc2c(C)cccc23)n2ccc(=O)c(O)c2C1=O (stereo not shown) [Compound A82] the EC50 was 125 to 250 nM. For CN1CN(C23c4ccccc4CC2(C)Cc2ccccc23)n2ccc(=O)c(O)c2C1=O (stereo not shown) [Compound A150], the EC50 was less than 125 nM. CC(C)CN1C(=O)c2c(O)c(=O)ccn2N(C23c4ccccc4CC2Cc2c(F)cccc23)C1C (stereo not shown) [Compound A117] gave an EC50 of 250 to 375 nM. For O=C1c2c(O)c(=O)ccn2N(C23c4cccc(F)c4CC2Cc2c(F)cccc23)CN1CC1CC1 (stereo not shown) [Compound A76], the EC50 was less than 125 nM. CCCN1CN(C23c4cccc(F)c4CC2Cc2c(F)cccc23)n2ccc(=O)c(O)c2C1=O (stereo not shown) [Compound A153] showed an EC50 of 125 to 250 nM.

Same assay, conditions: strain B/Lee/40, MDCK cells, CPE inhibition at 4 days
CCN1CN(C23c4cccc(F)c4CC2Cc2c(F)cccc23)n2ccc(=O)c(O)c2C1=O (stereo not shown) [Compound A34] was tested, and the EC50 was greater than 500 nM. CC(CCN1CN(C23c4ccccc4CC2Cc2ccccc23)n2ccc(=O)c(O)c2C1=O)c1ccccc1 (stereo not shown) [Compound A33] showed an EC50 greater than 500 nM. Compound CC(CCN1CN(C23c4ccccc4CC2Cc2ccccc23)n2ccc(=O)c(O)c2C1=O)c1ccccc1 (stereo not shown) [Compound A32, 1-(9a,10-dihydroindeno[1,2-a]inden-4b(9H)-yl)-5-hydroxy-3-(3-phenylbutyl)-2,3-dihydro-1H-pyrido[2,1-f][1,2,4]triazine-4,6-dione] has an EC50 of less than 125 nM.
